Experimental findings from patent US20240197700A1, “Methods and Compositions for Treating Lysosomal Storage Disorders” (Sanford Health, priority 2021, published 2024) are described below.

Entries after “also recorded” stand apart in the source; their conditions may differ.

For the assay, the system named is Cln3^Δex7/8 mice. Briefly: Microglial activation (CD68) in brain of Cln3^Δex7/8 mice. It is filed as in vivo, mouse. The conditions noted are these: for microglial activation (CD68): VPM/VPL of the thalamus and somatosensory cortex. The procedure:
FIG. 22(A-B). Short-term chronic treatment with semaglutide impacts glial activation in Cln3^Δex7/8 mice. Beginning at wean, wild type and Cln3^Δex7/8 mice were treated with vehicle or semaglutide 2.571 μg/mouse, 25.71 μg/mouse) through subcutaneous injections three times a week until sacrifice at 16 weeks. Upon sacrifice, a hemisphere of the brain was sectioned at 50 microns on a vibratome; DAB staining immunohistochemistry was then performed using anti-GFAP (Dako, Z0334; 1:5000), anti-CD68 (AbD Serotec, MCA1957; 1:2000), anti-rabbit biotinylated (Vector Labs, BA-1000 1:1000), and anti-rat (Vector Labs, BA-9400 1:1000). Sections were imaged and analyzed using an Aperio Digital Pathology Slide Scanner (AT2) and associated software. Images were extracted from S1BF of the somatosensory cortex, the CA3 of the hippocampus, and the VPM/VPL of the thalamus, key brain regions for Batten disease pathology. Percent area of immunoreactivity were quantified using a threshold analysis in ImageJ™. Statistical analyses were performed using GraphPad Prism™ (v8.4.3; San Diego, CA). […] Increasing concentrations of semaglutide and corresponding genotypes are shown along the x-axis. Nested one-way ANOVA. Mean±S.E.M. Sidak's multiple comparisons test. Compared to the wild type vehicle treated group #p<0.05, ##p<0.01, ###p<0.001, ####p<0.0001. Compared to mutant vehicle treated group *p<0.05, **p<0.01, ***p<0.001, ****p<0.0001.
Specific experimental details are included in figure legends. In general, after collection and preparation, MEFs and PNCs were dosed with vehicle or AF38469 (40 nM, 400 nM. or 4 μM) on DIV3 and DIV5. On DIV7, cells were treated with the following dyes: Hoechst 33342 (1:1000 dilution), LysoTrackerT™ Red DND-99 (1:10,000 dilution), fixed, and imaged. Mice were given vehicle or AF38469 (78.125 μg/ml, 3.125 μg/ml, 0.3125 μg/ml or 0.03125 μg/ml equating approximately to 250 μg/mouse/day, 10 μg/mouse/day, 1 μg/mouse/day, and […], respectively, given a mouse's daily water intake of approximately 3.2 ml per day) in drinking water beginning at wean. Body weight was measured bi-weekly, and a force actimeter test was performed on Cln2^R207X mice at 10 weeks of age. Body weight was measured every month for Cln3^Δex7/8 mice. At 11 and 16 weeks of age, respectively, Cln2^R207X and Cln3^Δex7/8 mice along with age matched wild type control mice were CO2 euthanized and intracardially perfused with PBS. Brains were collected and placed on a 1 mm sagittal brain block. Brains were sliced at the midline and 3 mm right of the midline. One hemisphere was fixed in 4% PFA and sectioned at 50 microns on a vibratome. Immunohistochemistry was performed on free-floating sections. For mitochondrial ATP synthase subunit C (SubC), glial fibrillary acidic protein (GFAP), and cluster of differentiation 68 (CD68) immunolabeling, primary antibodies included anti-SubC (Abcam, ab181243; 1:1000), anti-GFAP (Dako, Z0334; 1:5000), anti-CD68 (AbD Serotec, MCA1957; 1:2000), and secondary antibodies included anti-rabbit biotinylated (Vector Labs, BA-1000 1:1000) and anti-rat (Vector Labs, BA-9400 1:1000). Coverslips were mounted on slides using antifade-mounting media and were stored in the dark before imaging. Sections were imaged and analyzed using an Aperio Digital Pathology Slide Scanner (AT2) and associated software. Images were extracted from S1BF of the somatosensory cortex and the VPM/VPL of the thalamus, with multiple images taken of multiple tissues from each animal.
Short-term chronic treatment with AF38469 impacts glial activation in Cln3^Δex7/8 mice. Beginning at wean, wild type and Cln3^Δex7/8 mice were treated with vehicle (0.2408% DMSO) or AF38469 (0.03125 μg/ml, 0.3125 μg/ml, 3.125 μg/ml, 78.125 μg/ml) continuously through the drinking water continuing until sacrifice at 16 weeks. […]

Turning to `Cc1cccc(NC(=O)c2ccc(C(F)(F)F)cc2C(=O)O)n1` [AF38469, 2-((6-methylpyridin-2-yl)carbamoyl)-5-(trifluoromethyl)benzoic acid], the “microglial activation (CD68)” value is, setting by setting: (AF38469 higher doses 3.125 μg/ml, 78.125 μg/ml) “increased or had no impact; also recorded: had no impact”; (AF38469 lower doses 0.03125 μg/ml, 0.3125 μg/ml) “significantly and potently decreased”.
As for `CC[C@H](C)[C@H](N)C(=O)NCCN1CCOCC1` [LM11A-31, N-[2-(morpholin-4-yl)ethyl]-L-isoleucinamide], the “microglial activation (CD68)” value (LM11A-31 0.6 mg/mL) is listed as “had no impact”. For the same compound, the “levels of CD68” value (LM11A-31 0.6 mg/mL, thalamus) is on record as “trends towards decreased levels”.
On to semaglutide, for which, where the note is “semaglutide 2.571 μg/mouse, 25.71 μg/mouse s.c., S1BF, CA3, VPM/VPL, vs vehicle Cln3^Δex7/8”, the “accumulation of microgliosis (CD68)” value was “had no significant effect”. For the setting “semaglutide lower dose 2.571 μg/mouse s.c., S1BF, CA3, VPM/VPL, relative to wild type”, the CD68 immunoreactivity result is on record as “reduced CD68 immunoreactivity to levels indistinguishable from wild type; also recorded: restored CD68 immunoreactivity to wild type levels”.
